According to PubChem BioAssay (NCI):
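These data come from cells grown in 96-well plates and exposed to compound for 48 hours at five concentrations. At the TGI there is no net growth.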

Columns and labels:
Assay in all cases: DTP human tumour cell line panel, 48 h
A549 NSCLC = tested on: A549 NSCLC
DU-145 prostate = tested on: DU-145 prostate
HCT-116 colon = tested on: HCT-116 colon
HOP-92 NSCLC = tested on: HOP-92 NSCLC
IGROV1 ovarian = tested on: IGROV1 ovarian
RXF 393 renal = tested on: RXF 393 renal
SK-MEL-2 melanoma = tested on: SK-MEL-2 melanoma
SF-539 CNS = tested on: SF-539 CNS

Row | Compound | TGI (A549 NSCLC) | TGI (DU-145 prostate) | TGI (HCT-116 colon) | TGI (HOP-92 NSCLC) | TGI (IGROV1 ovarian) | TGI (RXF 393 renal) | TGI (SK-MEL-2 melanoma) | TGI (SF-539 CNS)
1 | CC(Br)CN(CC(C)Br)c1ccc2c(c1)Cc1ccccc1-2 (stereo unspecified) | 24.4 µM | 23 µM | 23.8 µM | 20.9 µM | 20.7 µM | 28 µM | 29.6 µM | 
2 | CC1OC2OC3C(OCC(O)C3O)OC(=O)[C@]34CCC(C)(C)CC3C3=CCC5[C@@]6(C)C[C@H](O)[C@H](OC7OC(CO)C(O)C(O)C7OC7OC(COC(=O)CC(C)(O)CC(=O)OC1C(OC1OC(CO)C(O)C(O)C1O)C2O)C(O)C(O)C7O)[C@@](C)(CO)C6CC[C@@]5(C)[C@]3(C)CC4 (stereo partly specified) | 0.293 µM | 8.51 µM | 10.3 µM | 4.31 µM | 11.8 µM |  | 3.37 µM | 15.5 µM
3 | Cc1cccc2c(N)c3cccc(C(=O)NCC[N+](C)(C)[O-])c3nc12 | > 100 µM | > 100 µM | > 100 µM | 92.8 µM | > 100 µM | 27.5 µM | > 100 µM | 36.7 µM
4 | O/N=C/[C@H]1COC2(CCCCC2)O1 | > 100 µM | > 100 µM | > 100 µM | > 100 µM | > 100 µM |  | > 100 µM | 
5 | C/C(=C\CO)CC[C@@H]1[C@@]2(C)CCCC(C)(C)[C@@H]2CC[C@@]1(C)O | 92.7 µM | 34.3 µM | 43.5 µM | 32.4 µM | 35.5 µM | 35 µM | 31.4 µM | 32.4 µM
6 | O=C(O[C@@H](/C=C/c1ccccc1)P1(=O)N(Cc2ccccc2)[C@@H]2CCCC[C@H]2N1Cc1ccccc1)c1ccccc1 | > 100 µM |  | > 100 µM | 5.52 µM | 15.5 µM |  | 5.42 µM | > 100 µM
7 | CC1CCc2sc3[nH]c(=S)n(C)c(=O)c3c2C1 (stereo unspecified) | > 100 µM | > 100 µM | > 100 µM | 44.5 µM | > 100 µM | > 100 µM | > 100 µM | 
8 | C[C@@](Br)(C(=O)O)[C@H](Br)C(=O)O | > 100 µM | > 100 µM | > 100 µM | > 100 µM | > 100 µM | > 100 µM |  | 
9 | CC1=NN(c2cccc(Cl)c2)C2(C1=Cc1ccc(N(C)C)cc1)C(Cl)C(=O)N2c1nc2ccccc2s1 (stereo unspecified) |  | > 100 µM | > 100 µM | 64.7 µM | > 100 µM | 46 µM | > 100 µM | > 100 µM
10 | CSc1ncnc2c1cnn2Cc1cn(COCC(O)CO)nn1 (stereo unspecified) | > 100 µM | > 100 µM | > 100 µM | > 100 µM | > 100 µM |  | > 100 µM | > 100 µM
11 | Cc1nn(C(=O)c2ccccc2O)c2c1C(c1ccc([N+](=O)[O-])cc1)SC(N)=N2 (stereo unspecified) | > 10 µM | > 10 µM | > 10 µM | > 10 µM | > 10 µM | > 10 µM | > 10 µM | > 2.67 µM
12 | CC(=O)Nc1ccc2c(c1)nc1c3ccccc3ccn21 | > 100 µM | > 100 µM | > 100 µM | > 100 µM | > 100 µM | > 100 µM | > 100 µM | > 100 µM
13 | CC(=O)OC1COC(N2c3ccccc3[C@@H]3CCc4c([nH]c5ccccc45)[C@@H]32)C(OC(C)=O)C1OC(C)=O (mixture of isomers) | > 100 µM | > 100 µM | > 100 µM | > 100 µM | 54 µM |  | > 100 µM | 
